# According to patent US20170304286A1 (LAUNX BIOMEDICAL CO., LTD., priority 2014, published 2017):
# Where “and” joins values, the source holds several entries; their conditions need not be identical. Equal entries are not always repeated. Where two headings read alike, the source gives them in different places.
# Assays:
# prostate cancer cells = experiment: Summary of cell viability, prostate cancer; assay type: cell-based; settings: 72 h, read-out: Inhibitory effect
# Experimental: (§1) Removing the original culture medium from 96-well plate. Then add 100 μl of commercially drug at a concentration of 10 μM per well. After 72 hours, add the diluted WST-1 reagent to the well with 100 μl/well, and the diluted WST-1 reagent was acquired from the dilution of 9:1 medium and WST-1 stock reagent. Finally, the total volume of each well was 200 μl/well. Culture the 96-well plate at 37° C. for 30 to 90 minutes. Detecting and calculate the survival rate of each cancer cells with an ELISA reader at OD450 nm.
# [1] = test system: BCC (basal cell carcinoma); experiment: WST-1 cell viability, skin cancer cell line BCC; assay type: cell-based; settings: 72 h
# Experimental: (§2) The cell numbers were counted and reseed as 2×10^6 in culture plate/flask. Then, the culture medium were added to a volume of 10 ml, and the cells were cultured for 2-3 days. Then, the cells were suspended for loading into 96-well plates. The number of cells was 3000 and the volume of the culture medium was 100 μl each well.
# as §1
# colorectal cancer cells = experiment: Summary of cell viability, colorectal cancer; assay type: cell-based; settings: 72 h, read-out: Inhibitory effect
# Experimental: as §1
# [2] = test system: SAS (Tongue squamouscell carcinoma); experiment: WST-1 cell viability, tongue cancer cell line SAS; assay type: cell-based; settings: 72 h
# Experimental: as §2, §1
# [3] = test system: H1650 (lung adenocarcinoma); experiment: WST-1 cell viability, lung cancer cell line H1650; assay type: cell-based; settings: Homo sapiens
# Experimental: as §2, §1
# [4] = test system: Hep3B (hepatocellular carcinoma); experiment: WST-1 cell viability, hepatic cancer cell line Hep3B; assay type: cell-based; settings: Homo sapiens, 72 h
# Experimental: as §2, §1
# [5] = test system: A549 (lung adenocarcinoma); experiment: WST-1 cell viability, lung cancer cell line A549; assay type: cell-based; settings: Homo sapiens
# Experimental: as §2, §1
# [6] = Animal model test of gastric cancer, body weight and survival of mice; assay type: in vivo; settings: for weight: mice A, B, C
# Experimental: In this invention, the female mice were (BALB/cAnN.Cg-Foxn1^nu/CrlNarl) purchased from National Laboratory Animal Center (Taiwan). The weight of the mice were 21±1 g. These mice were subcutaneously injected with gastric cancer cells (AGS) and then put these mice into different cage sat random. The drug test experiment was divided into three groups, include “control group”, “low dose group (100 mg/kg/day)”, and “high dose group (200 mg/kg/day)”. These mice were then injected test drug intraperitoneally once daily until the tumor size reached 100 mm^3. The tumor sizes and body weight were measured twice a week. The tumor sizes were measured and calculated by formula: (L×W^2)/2. L represents the tumor longest length. W represents the tumor shortest diameter.
# [7] = test system: AGS (Gastric Adenocarcinoma); experiment: WST-1 cell viability, gastric cancer cell line AGS; assay type: cell-based; settings: 72 h
# Experimental: as §2, §1
# [8] = test system: LoVo(Colorectal Adenocarcinoma); experiment: WST-1 cell viability, colorectal cancer cell line LoVo; assay type: cell-based; settings: Homo sapiens, 72 h
# Experimental: as §2, §1
# bladder cancer cells = experiment: Summary of cell viability, bladder cancer; assay type: cell-based; settings: 72 h, read-out: Inhibitory effect
# Experimental: as §1
# AsPC-1 = experiment: WST-1 cell viability, pancreatic cancer cell line AsPC-1; assay type: cell-based; settings: Homo sapiens
# Experimental: as §2, §1
# [9] = test system: 786-O (Renal adenocarcinoma); experiment: WST-1 cell viability, renal cancer cell line 786-O; assay type: cell-based; settings: Homo sapiens
# Experimental: as §2, §1
# [10] = test system: MDA-MB-231 (Mammary Gland, Adenocarcinoma); experiment: WST-1 cell viability, breast cancer cell line MDA-MB-231; assay type: cell-based; settings: Homo sapiens
# Experimental: as §2, §1
# [11] = WST-1 cell viability, normal kidney cell line HEK293; assay type: cell-based; settings: human, HEK293 normal kidney cells
# Experimental: as §2, §1
# breast cancer cells = experiment: Summary of cell viability, breast cancer; assay type: cell-based; settings: 72 h, read-out: Inhibitory effect
# Experimental: as §1
# ovarian cancer cells = experiment: Summary of cell viability, ovarian cancer; assay type: cell-based; settings: 72 h, read-out: Inhibitory effect
# Experimental: as §1
# LNCap = experiment: WST-1 cell viability, prostate cancer cell line LNCap; assay type: cell-based; settings: Homo sapiens, 72 h
# Experimental: as §2, §1
# NIH-OVCAR-3 = experiment: WST-1 cell viability, ovarian cancer cell line NIH-OVCAR-3; assay type: cell-based; settings: Homo sapiens
# Experimental: as §2, §1
# [12] = average of 4 tests, read-out: survival rate (inhibition effect), Average
smiles,measurement,setting,value
Fc1ccc([C@@H]2CCNC[C@H]2COc2ccc3c(c2)OCO3)cc1 [Paroxetine],viability at 10 µM,prostate cancer cells,44.1%
same,viability at 10 µM,[1]; [12],58.2%
same,viability at 10 µM,"[1]; run 0602-30 min, read-out: survival rate (inhibition effect)",42.1%
same,viability at 10 µM,"[1]; run 0605-10 min, read-out: survival rate (inhibition effect)",52.6%
same,viability at 10 µM,"[1]; run 0607-10 min, read-out: survival rate (inhibition effect)",41.1%
same,viability at 10 µM,"[1]; run 0609-10 min, read-out: survival rate (inhibition effect)",97%
same,viability at 10 µM,colorectal cancer cells,43.2%
same,viability at 10 µM,"[2]; SAS, average of 4 tests, read-out: survival rate (inhibition effect), Average",51.5%
same,viability at 10 µM,"[2]; summary, tongue cancer, read-out: Inhibitory effect",51.5%
same,viability at 10 µM,"[2]; SAS, run 6-26-10 min, read-out: survival rate (inhibition effect)",48.2%
same,viability at 10 µM,"[2]; SAS, run 6-28-10 min, read-out: survival rate (inhibition effect)",26.7%
same,viability at 10 µM,"[2]; SAS, run 6-30-10 min, read-out: survival rate (inhibition effect)",58%
same,viability at 10 µM,"[2]; SAS, run 7-3-10 min, read-out: survival rate (inhibition effect)",73.1%
same,viability at 10 µM,"[3]; NCI-H1650, 72 h, H1650, average of 4 tests, read-out: survival rate (inhibition effect), Average",56.9%
same,viability at 10 µM,"[3]; NCI-H1650, H1650, 72 h, run 1-10 min, read-out: survival rate (inhibition effect)",66.4%
same,viability at 10 µM,"[3]; NCI-H1650, H1650, 72 h, run 2-20 min, read-out: survival rate (inhibition effect)",31.6%
same,viability at 10 µM,"[3]; NCI-H1650, H1650, 72 h, run 3-20 min, read-out: survival rate (inhibition effect)",58.2%
same,viability at 10 µM,"[3]; NCI-H1650, H1650, 72 h, run 4-20 min, read-out: survival rate (inhibition effect)",71.3%
same,viability at 10 µM,[4]; [12],66.1%
same,viability at 10 µM,"[4]; run 0612-20 min, read-out: survival rate (inhibition effect)",69.8%
same,viability at 10 µM,"[4]; run 0614-20 min, read-out: survival rate (inhibition effect)",67.4%
same,viability at 10 µM,"[4]; run 0616-20 min, read-out: survival rate (inhibition effect)",66.2%
same,viability at 10 µM,"[4]; run 0619-20 min, read-out: survival rate (inhibition effect)",60.9%
same,viability at 10 µM,"[5]; A549, 72 h, A549, average of 4 tests, read-out: survival rate (inhibition effect), Average",92.4%
same,viability at 10 µM,"[5]; A549, A549, 72 h, run 0524-10 min, read-out: survival rate (inhibition effect)",84.2%
same,viability at 10 µM,"[5]; A549, A549, 72 h, run 0526-10 min, read-out: survival rate (inhibition effect)",127%
same,viability at 10 µM,"[5]; A549, A549, 72 h, run 0529-10 min, read-out: survival rate (inhibition effect)",54%
same,viability at 10 µM,"[5]; A549, A549, 72 h, run 0531-10 min, read-out: survival rate (inhibition effect)",104%
same,weight,"[6]; 100 mg/kg/day i.p., Fifth measurement",22 g and 20 g
same,weight,"[6]; 100 mg/kg/day i.p., First measurement",19 g and 18 g
same,weight,"[6]; 100 mg/kg/day i.p., Fourth measurement",22 g and 20 g
same,weight,"[6]; 100 mg/kg/day i.p., Second measurement",19 g and 21 g and 20 g
same,weight,"[6]; 100 mg/kg/day i.p., Third measurement",20.5 g and 23.5 g and 19 g
same,weight,"[6]; 200 mg/kg/day i.p., Fifth measurement",21 g and 20 g
same,weight,"[6]; 200 mg/kg/day i.p., First measurement",19 g and 18.5 g and 20 g
same,weight,"[6]; 200 mg/kg/day i.p., Fourth measurement",20 g and 21 g
same,weight,"[6]; 200 mg/kg/day i.p., Second measurement",20 g and 23 g
same,weight,"[6]; 200 mg/kg/day i.p., Third measurement",19 g and 18.5 g
same,health status / death of tested mice during the treatment,[6]; both high and low doses,without death
same,weight of mice during the experiment,"[6]; both low dose and high dose, FIG. 2",did not show a significant decrease
same,viability at 10 µM,[7]; [12],12.2%
same,viability at 10 µM,"[7]; run 0510-10 min, read-out: survival rate (inhibition effect)",12%
same,viability at 10 µM,"[7]; run 0512-10 min, read-out: survival rate (inhibition effect)",11.1%
same,viability at 10 µM,"[7]; run 0515-10 min, read-out: survival rate (inhibition effect)",12.7%
same,viability at 10 µM,"[7]; run 0517-10 min, read-out: survival rate (inhibition effect)",12.8%
same,viability at 10 µM,[8]; [12],58%
same,viability at 10 µM,"[8]; run 0616-10 min, read-out: survival rate (inhibition effect)",54.1%
same,viability at 10 µM,"[8]; run 0619-10 min, read-out: survival rate (inhibition effect)",51.5%
same,viability at 10 µM,"[8]; run 0621-10 min, read-out: survival rate (inhibition effect)",77.3%
same,viability at 10 µM,"[8]; run 0623-10 min, read-out: survival rate (inhibition effect)",48.9%
same,viability at 10 µM,bladder cancer cells,69.1%
same,viability at 10 µM,"AsPC-1; ASPC1, 72 h, AsPC-1, average of 4 tests, read-out: survival rate (inhibition effect), Average",77%
same,viability at 10 µM,"AsPC-1; ASPC1, AsPC-1, 72 h, run 1-4-30 min, read-out: survival rate (inhibition effect)",72.5%
same,viability at 10 µM,"AsPC-1; ASPC1, AsPC-1, 72 h, run 1-7-3-30 min, read-out: survival rate (inhibition effect)",78.8%
same,viability at 10 µM,"AsPC-1; ASPC1, AsPC-1, 72 h, run 1-7-4-30 min, read-out: survival rate (inhibition effect)",87.3%
same,viability at 10 µM,"AsPC-1; ASPC1, AsPC-1, 72 h, run 1-7-7-30 min, read-out: survival rate (inhibition effect)",69.3%
same,viability at 10 µM,"[9]; 786-0, 786-O, 72 h, run 0524-10 min, read-out: survival rate (inhibition effect)",35.2%
same,viability at 10 µM,"[9]; 786-0, 786-O, 72 h, run 0526-10 min, read-out: survival rate (inhibition effect)",24%
same,viability at 10 µM,"[9]; 786-0, 786-O, 72 h, run 0529-10 min, read-out: survival rate (inhibition effect)",14.6%
same,viability at 10 µM,"[9]; 786-0, 786-O, 72 h, run 0531-10 min, read-out: survival rate (inhibition effect)",22.3%
same,viability at 10 µM,"[9]; 786-0, 72 h, 786-O, average of 4 tests, read-out: survival rate (inhibition effect), Average",24%
same,viability at 10 µM,"[9]; 786-0, 72 h, summary, renal cancer, read-out: Inhibitory effect",72.5%
same,viability at 10 µM,"[10]; MDA-MB-231, 72 h, MDA-MB-231, average of 4 tests, read-out: survival rate (inhibition effect), Average",41.8%
same,viability at 10 µM,"[10]; MDA-MB-231, MDA-MB-231, 72 h, run 0612-10 min, read-out: survival rate (inhibition effect)",47.9%
same,viability at 10 µM,"[10]; MDA-MB-231, MDA-MB-231, 72 h, run 0614-10 min, read-out: survival rate (inhibition effect)",35.9%
same,viability at 10 µM,"[10]; MDA-MB-231, MDA-MB-231, 72 h, run 0616-10 min, read-out: survival rate (inhibition effect)",42%
same,viability at 10 µM,"[10]; MDA-MB-231, MDA-MB-231, 72 h, run 0619-10 min, read-out: survival rate (inhibition effect)",41.2%
same,"viability at 72 h, 10 µM","[11]; HEK293, average of 4 tests, read-out: survival rate (inhibition effect), Average",71.4%
same,"viability at 72 h, 10 µM","[11]; HEK293, run 0602-30 min, read-out: survival rate (inhibition effect)",64.9%
same,"viability at 72 h, 10 µM","[11]; HEK293, run 0605-30 min, read-out: survival rate (inhibition effect)",76.8%
same,"viability at 72 h, 10 µM","[11]; HEK293, run 0607-30 min, read-out: survival rate (inhibition effect)",76%
same,"viability at 72 h, 10 µM","[11]; HEK293, run 0609-30 min, read-out: survival rate (inhibition effect)",67.8%
same,"viability at 72 h, 10 µM","[11]; summary, kidney cell, read-out: Inhibitory effect",71.4%
same,viability at 10 µM,breast cancer cells,46.5%
same,viability at 10 µM,ovarian cancer cells,86.5%
same,viability at 10 µM,LNCap; [12],71.7%
same,viability at 10 µM,"LNCap; run LNCap-1-10 min, read-out: survival rate (inhibition effect)",65.9%
same,viability at 10 µM,"LNCap; run LNCap-2-20 min, read-out: survival rate (inhibition effect)",61.7%
same,viability at 10 µM,"LNCap; run LNCap-3-20 min, read-out: survival rate (inhibition effect)",80.9%
same,viability at 10 µM,"LNCap; run LNCap-4-20 min, read-out: survival rate (inhibition effect)",78.3%
same,viability at 10 µM,"NIH-OVCAR-3; OVCAR-3, 72 h, NIH-OVCAR-3, average of 4 tests, read-out: survival rate (inhibition effect), Average",86%
same,viability at 10 µM,"NIH-OVCAR-3; OVCAR-3, NIH-OVCAR-3, 72 h, run 7-3-30 min, read-out: survival rate (inhibition effect)",80.2%
same,viability at 10 µM,"NIH-OVCAR-3; OVCAR-3, NIH-OVCAR-3, 72 h, run 7-4-30 min (fourth column), read-out: survival rate (inhibition effect)",97.8%
same,viability at 10 µM,"NIH-OVCAR-3; OVCAR-3, NIH-OVCAR-3, 72 h, run 7-4-30 min (second column), read-out: survival rate (inhibition effect)",81.9%
same,viability at 10 µM,"NIH-OVCAR-3; OVCAR-3, NIH-OVCAR-3, 72 h, run 7-7-30 min, read-out: survival rate (inhibition effect)",83.9%
